Structures are written as SMILES.

The nature of the test: Inhibition of Fas-mediated cell death in oxygen and glucose deprived rat H9c2 cells treated 30 mins before oxygen and glucose deprivation measured after 6 hrs by DAPI staining.
In turn, `O=C(CSc1ccc(Br)cc1)Nc1c(C(=O)O)oc2ccccc12` came in with an EC50 of 724 nM.

Take `COC(=O)c1oc2ccccc2c1NC(=O)COc1ccc(Br)cc1`: a half-maximal response (EC50) required 1050 nM.

On to `COC(=O)c1ccsc1NC(=O)CCSc1ccc(Br)cc1`, for which the EC50 was 589 nM.

Turning to `COC(=O)c1c(NC(=O)CSc2cccc(OC)c2)cnn1CCc1ccccc1`, the EC50 came to 437 nM.

In turn, `COC(=O)c1oc2ccccc2c1NC(=O)CSc1ccc([N+](=O)[O-])cc1` displayed an EC50 of 575 nM. This EC50 and that of the compound before are within 1.5-fold of each other.

The compound `COC(=O)c1c(NC(=O)CSc2ccc(Br)cc2)cnn1CCc1ccccc1` displayed an EC50 of 513 nM.

The compound `COC(=O)c1sc2ccccc2c1NC(=O)CCSc1ccc(Br)cc1` showed an EC50 of 724 nM.

As for `COC(=O)c1oc2cccc(Cl)c2c1NC(=O)CCSc1ccccn1`, the response was half-maximal at 631 nM (EC50).

Turning to `COC(=O)c1nn(CCc2ccccc2)cc1NC(=O)COc1ccc(Br)cc1`, the EC50 is 355 nM. This EC50 lies about 1.8-fold lower than the previous one.

Compound `COC(=O)c1oc2cccc(Cl)c2c1NC(=O)CSc1ccc(Br)cc1` registered an EC50 of 1150 nM. This EC50 lies about 3.2-fold higher than the previous one.

`COC(=O)c1oc2cccc(Cl)c2c1NC(=O)CSc1ccccn1` came in with an EC50 of 646 nM.

In turn, `COC(=O)c1sccc1NC(=O)CSc1ccc(Br)cc1` had an EC50 of 427 nM. This EC50 is about 1.5-fold lower than that of the compound before.

`O=C(CSc1ccc(Br)cc1)Nc1c(Br)cc(Br)cc1C(=O)O` registered a concentration for a half-maximal effect (EC50) of 1230 nM.

In turn, `COC(=O)c1sccc1NC(=O)CSc1cccc(OC)c1` returned an EC50 of 575 nM.

`COC(=O)c1sccc1NC(=O)CN(C)c1ccccc1` returned an EC50 of 661 nM.

`COC(=O)c1sccc1NC(=O)CSc1ccccc1` showed an EC50 of 794 nM.

With `Cc1csc(C(=O)O)c1NC(=O)CSc1ccc(Br)cc1`, the EC50 is 1120 nM.

In the case of `COC(=O)c1sccc1NC(=O)CCSc1ccc(Br)cc1`, the EC50 was 1290 nM.

Compound `COC(=O)c1cc(Br)cc(Br)c1NC(=O)CCSc1ccccn1` had an EC50 of 933 nM.

As for `CN(C)C(=O)c1sccc1NC(=O)CSc1ccc(Br)cc1`, the midpoint of the response, the EC50, lay at 851 nM.

Take `COC(=O)c1cc(Br)cc(Br)c1NC(=O)C(Sc1ccc(Br)cc1)c1ccccc1` (stereo not drawn): the EC50 came to 1580 nM.

Compound `COC(=O)c1c(NC(=O)CSc2ccc([N+](=O)[O-])cc2)cnn1CCc1ccccc1` displayed an EC50 of 457 nM. Against the preceding compound, the EC50 is about 3.5-fold lower.

`COC(=O)c1ccccc1NC(=O)CSc1ccccc1`: the EC50 is 562 nM.

For `COC(=O)c1ccc(Cl)cc1NC(=O)CSc1ccc(Br)cc1`, it took 955 nM to reach a half-maximal effect (EC50).

As for `COC(=O)c1sccc1NC(=O)CSc1ccc(OC)cc1`, the response was half-maximal at 871 nM (EC50).

On to `COC(=O)c1sccc1NC(=O)CCSc1ccccc1`, for which the EC50 was determined as 501 nM. Against the preceding compound, the EC50 is about 1.7-fold lower.

The compound `COC(=O)c1sccc1NC(=O)COc1ccc(Br)cc1` showed an EC50 of 891 nM.

`COC(=O)c1ccccc1NC(=O)CSc1ccccn1` [2-[[1-oxo-2-(2-pyridinylthio)ethyl]amino]benzoic acid methyl ester] gave an EC50 of 692 nM. This EC50 and that of the compound before are within 1.5-fold of each other.

`COC(=O)c1sc2ncccc2c1NC(=O)CCSc1ccccn1` yielded an EC50 of 490 nM. This EC50 and that of the compound before are within 1.5-fold of each other.

The compound `COC(=O)c1sc2ccccc2c1NC(=O)CSc1ccccc1` showed an EC50 of 692 nM.

Take `COC(=O)c1oc2ccccc2c1NC(=O)CSc1ccc(Br)cc1`: the EC50 is 661 nM.

Take `O=C(CCSc1ccccn1)Nc1cc(Cl)ccc1C1=NCCO1`: the EC50 stood at 1740 nM.

For `COC(=O)c1ccc(Cl)cc1NC(=O)CCSc1ccccn1`, the EC50 stood at 1020 nM.

`COC(=O)c1cc(OC)c(OC)cc1NC(=O)CCSc1ccccn1` gave an EC50 of 1320 nM.

For `COC(=O)c1c(NC(=O)CSc2ccccc2N)cnn1CCc1ccccc1`, the midpoint of the response, the EC50, lay at 513 nM.

Compound `COc1cc(C(=O)O)c(NC(=O)CCSc2ccccn2)c(OC)c1OC` yielded an EC50 of 2090 nM.

In the case of `COC(=O)c1ccsc1NC(=O)CSc1ccccc1`, the EC50 was 724 nM. Against the preceding compound, the EC50 is about 2.9-fold lower.

Take `O=C(O)c1cc(Cl)ccc1NC(=O)C(Sc1ccc(Br)cc1)c1ccccc1` (stereo not drawn): the concentration giving a half-maximal response (EC50) turned out to be 2000 nM.

`COC(=O)c1cc(OC)c(OC)c(OC)c1NC(=O)CCSc1ccccn1` returned an EC50 of 1070 nM.

For the compound `COC(=O)c1ccsc1NC(=O)CSc1ccc(Br)cc1`, the response was half-maximal at 759 nM (EC50). The EC50 values of the last two compounds are within 1.5-fold of each other.

`COc1cc(NC(=O)CSc2ccc(Br)cc2)c(C2=NCCO2)cc1OC` gave an EC50 of 955 nM. The EC50 values of the last two compounds are within 1.5-fold of each other.

In turn, `COC(=O)c1nn(CCc2ccccc2)cc1NC(=O)CCc1ccccc1` yielded an EC50 of 427 nM. This EC50 is about 2.2-fold lower than that of the compound before.

As to `O=C(CSc1ccc(Br)cc1)Nc1ccccc1C(=O)O`, the midpoint of the response, the EC50, lay at 2240 nM. Against the preceding compound, the EC50 is about 5.2-fold higher.

As usually defined, the EC50 is the midpoint of the concentration-response curve.

Values taken from BindingDB's records for doi:10.1016/j.bmcl.2013.07.018 (Chungnam National University, 2013).
